# According to patent US20210227869A1, “Formula with a specific beta-lactoglobulin peptide” (N.V. Nutricia, priority 2018, published 2021):
# Experiments:
# [1] = test system: cow's milk-specific T-cell line TCL A; experiment: T-cell proliferation assay; type: cell-based, human; conditions: synthetic peptide, SI≥2 considered positive, FIG. 2
# Experimental: (§1) Synthetic peptides were obtained from JPT technologies. Only peptides containing at least 9 AAs were taken into account, as this is the minimal size for binding to MHC class II molecules and subsequent T-cell recognition (Holland et al, Front Immunol 2013 Jul. 1; 4:172.) Synthetic peptides (JPT technologies) identical to the peptides identified in all batches of the HP of example 1 were dissolved in dimethylsulfoxide (Sigma Aldrich) at a concentration of 5.3 mM. The peptides were tested on cow's milk-specific T-cell lines (TCLs) from three different donors. The peptides were tested on cow's milk protein-specific T-cell lines (TCLs) from three infant donors, diagnosed with cow's milk protein allergy. […] Proliferation was determined as described previously (Ruiter et al, Clin Exp Allergy 2006, 36(3):303-310). Stimulation indexes (Sls, ratio between proliferation of allergen/peptide-stimulated and non-stimulated T cells) were calculated and a SI≥2 was considered positive.
# (§2) To confirm that the peptides identified in HP were recognized by T cells, synthetic peptides identical to these identified peptides were tested on cow's milk-specific human TCLs. As there was a considered overlap between the identified peptides, five peptides were tested (Table 7) that were identified in all batches and differed with more than 9A from each other. All tested peptides were able to induce proliferation (FIG. 2). […] This was also seen with the in silico prediction data (data not shown). […] As peptide LIV . . . […] SLL (AA #1-32) did, the region containing AA #28-32 (DISLL) was essential for the response of TCL A. Unexpectedly, TCL C recognized peptide LIV . . . AAS (AA #1-27), while the longer peptide containing the same sequence with 5 additional AAs, LIV . . .
# [2] = test system: cow's milk-specific T-cell line TCL C; experiment: T-cell proliferation assay; type: cell-based, human; conditions: synthetic peptide, SI≥2 considered positive, FIG. 2
# Experimental: as §1, §2
Sequence,T cell proliferation (stimulation index) [1],T cell proliferation (stimulation index) [2]
LIVTQTMKGLDIQKVAGTWYSLAMAAS (beta-lactoglobulin peptide fragment) [SEQ ID NO: 9],not able to induce proliferation,recognized
LIVTQTMKGLDIQKVAGTWYSLAMAASDISLL (beta-lactoglobulin peptide fragment) [SEQ ID NO: 11],–,not able to induce a proliferative response
